From patent US20100240683A1, “COMBINATION THERAPY, COMPOSITION AND METHODS FOR THE TREATMENT OF CARDIOVASCULAR DISORDERS” (Syndromex Ltd., priority 2007, published 2010)
pIC50: −log10 of the molar value. Blank lines part the entries; values can stand above or below the compound they belong to.

Assays:
[1] = molecular target: T1, CYP2C8 (Homo sapiens, UniProt P10632); assay: in vitro
T1 sequence (P10632 1-490): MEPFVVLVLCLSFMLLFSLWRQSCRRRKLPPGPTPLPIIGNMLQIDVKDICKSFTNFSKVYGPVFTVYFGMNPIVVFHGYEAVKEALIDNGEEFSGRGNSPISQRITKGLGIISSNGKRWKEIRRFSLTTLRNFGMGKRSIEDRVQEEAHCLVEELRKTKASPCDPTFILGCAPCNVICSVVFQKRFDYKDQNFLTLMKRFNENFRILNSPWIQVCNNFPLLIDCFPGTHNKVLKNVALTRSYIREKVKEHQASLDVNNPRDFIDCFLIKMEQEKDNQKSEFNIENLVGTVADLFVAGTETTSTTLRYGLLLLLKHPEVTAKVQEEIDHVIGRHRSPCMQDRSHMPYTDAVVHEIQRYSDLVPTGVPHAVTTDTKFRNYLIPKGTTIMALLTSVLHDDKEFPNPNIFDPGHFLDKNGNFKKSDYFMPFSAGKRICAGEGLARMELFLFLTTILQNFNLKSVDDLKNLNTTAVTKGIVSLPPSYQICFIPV

[2] = molecular target: T2, CYP2C9 (Homo sapiens, UniProt P11712); assay: Fluorimetric CYP inhibition assay, CYP2C9-MFC
T2 sequence (P11712 whole entry): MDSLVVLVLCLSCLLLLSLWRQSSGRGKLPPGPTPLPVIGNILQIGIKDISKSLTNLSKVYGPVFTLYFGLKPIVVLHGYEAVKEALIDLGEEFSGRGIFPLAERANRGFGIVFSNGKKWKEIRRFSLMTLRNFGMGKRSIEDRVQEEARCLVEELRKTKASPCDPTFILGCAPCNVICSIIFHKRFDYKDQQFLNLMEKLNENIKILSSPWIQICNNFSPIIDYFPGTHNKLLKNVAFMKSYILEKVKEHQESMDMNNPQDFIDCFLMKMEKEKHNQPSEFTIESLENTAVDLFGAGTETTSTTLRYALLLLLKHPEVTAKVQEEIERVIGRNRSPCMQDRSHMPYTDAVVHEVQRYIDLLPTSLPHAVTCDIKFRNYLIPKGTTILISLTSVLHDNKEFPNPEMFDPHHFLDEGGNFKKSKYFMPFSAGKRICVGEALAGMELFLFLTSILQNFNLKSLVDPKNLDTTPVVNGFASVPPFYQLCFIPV

[3] = molecular target: T3, CYP3A4 (Homo sapiens, UniProt P08684); assay: Fluorimetric CYP inhibition assay, CYP3A4 (substrates BFC, BQ, DBF)
T3 sequence (P08684 whole entry): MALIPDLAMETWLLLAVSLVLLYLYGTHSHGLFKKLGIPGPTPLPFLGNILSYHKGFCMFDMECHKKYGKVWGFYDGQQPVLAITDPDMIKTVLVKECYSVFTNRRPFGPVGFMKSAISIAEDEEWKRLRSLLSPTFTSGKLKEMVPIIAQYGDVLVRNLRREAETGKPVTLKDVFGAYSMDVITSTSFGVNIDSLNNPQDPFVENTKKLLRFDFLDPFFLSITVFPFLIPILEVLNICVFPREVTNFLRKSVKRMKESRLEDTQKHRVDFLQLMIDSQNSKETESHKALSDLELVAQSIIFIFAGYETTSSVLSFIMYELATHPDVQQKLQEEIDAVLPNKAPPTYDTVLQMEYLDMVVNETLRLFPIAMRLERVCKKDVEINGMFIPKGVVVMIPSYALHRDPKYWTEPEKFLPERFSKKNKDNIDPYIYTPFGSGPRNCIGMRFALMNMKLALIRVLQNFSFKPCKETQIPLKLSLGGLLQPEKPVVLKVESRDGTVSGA

[4] = molecular target: T2, CYP2C9; assay: in vitro
[5] = molecular target: T4, CYP2D6 (Homo sapiens, UniProt P10635); assay: in vitro
T4 sequence (P10635 whole entry): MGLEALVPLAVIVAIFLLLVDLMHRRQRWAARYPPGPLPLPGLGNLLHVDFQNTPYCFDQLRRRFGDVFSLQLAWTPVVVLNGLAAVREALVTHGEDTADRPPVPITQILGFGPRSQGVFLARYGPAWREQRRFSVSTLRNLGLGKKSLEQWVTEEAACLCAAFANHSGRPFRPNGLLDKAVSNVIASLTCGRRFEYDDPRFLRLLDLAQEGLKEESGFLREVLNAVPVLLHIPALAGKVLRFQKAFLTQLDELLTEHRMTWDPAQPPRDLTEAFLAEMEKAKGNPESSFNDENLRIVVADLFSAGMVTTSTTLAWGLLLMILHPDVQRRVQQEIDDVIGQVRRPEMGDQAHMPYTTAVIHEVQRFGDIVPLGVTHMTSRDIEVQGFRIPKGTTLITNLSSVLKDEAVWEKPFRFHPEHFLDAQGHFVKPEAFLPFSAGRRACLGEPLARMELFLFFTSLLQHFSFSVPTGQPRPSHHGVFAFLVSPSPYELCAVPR

[6] = molecular target: T1, CYP2C8; assay: biochemical
[7] = molecular target: T4, CYP2D6; assay: Fluorimetric CYP inhibition assay, CYP2D6-AMMC
[8] = molecular target: T3, CYP3A4; assay: in vitro
[9] = molecular target: T5, CYP1A2 (Homo sapiens, UniProt P05177); assay: in vitro
T5 sequence (P05177 1-516): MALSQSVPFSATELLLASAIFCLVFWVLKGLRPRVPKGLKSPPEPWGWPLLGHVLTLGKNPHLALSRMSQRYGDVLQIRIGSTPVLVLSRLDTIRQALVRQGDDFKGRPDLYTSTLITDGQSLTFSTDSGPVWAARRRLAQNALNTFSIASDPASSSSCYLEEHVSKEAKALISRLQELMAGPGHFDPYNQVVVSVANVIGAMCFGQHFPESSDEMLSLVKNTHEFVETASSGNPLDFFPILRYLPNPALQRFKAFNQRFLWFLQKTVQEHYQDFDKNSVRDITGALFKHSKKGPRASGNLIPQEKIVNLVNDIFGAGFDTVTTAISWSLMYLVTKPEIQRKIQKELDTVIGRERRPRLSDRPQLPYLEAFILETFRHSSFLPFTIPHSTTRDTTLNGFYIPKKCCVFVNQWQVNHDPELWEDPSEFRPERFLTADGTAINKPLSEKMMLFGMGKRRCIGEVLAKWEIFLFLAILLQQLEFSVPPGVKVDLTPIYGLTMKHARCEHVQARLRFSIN

- inhibition at 0.05 μM ([1]; % Inhibition (set 1)): 0%
- inhibition at 0.41 μM ([1]; % Inhibition (set 1)): 1%
- inhibition at 1.23 μM ([1]; % Inhibition (set 1)): 0%
- inhibition at 3.7 μM ([1]; % Inhibition (set 1)): 4%
- inhibition at 11.11 μM ([1]; % Inhibition (set 1)): 13%
- inhibition at 33.33 μM ([1]; % Inhibition (set 1)): 23%
- inhibition at 100 μM ([1]; % Inhibition (set 1)): 43%
- inhibition at 0.05 μM ([1]; % Inhibition (set 2)): 0%
- inhibition at 0.41 μM ([1]; % Inhibition (set 2)): 0%
- inhibition at 1.23 μM ([1]; % Inhibition (set 2)): 0%
- inhibition at 3.7 μM ([1]; % Inhibition (set 2)): 0%
- inhibition at 11.11 μM ([1]; % Inhibition (set 2)): 0%
- inhibition at 33.33 μM ([1]; % Inhibition (set 2)): 15%
- inhibition at 100 μM ([1]; % Inhibition (set 2)): 38%
- pIC50 [2]: < 4.00
- pIC50 [3]: < 4.00
- inhibition at 0.05 μM ([4]; % Inhibition (set 1)): 4%
- inhibition at 0.41 μM ([4]; % Inhibition (set 1)): 5%
- inhibition at 1.23 μM ([4]; % Inhibition (set 1)): 2%
- inhibition at 3.7 μM ([4]; % Inhibition (set 1)): 6%
- inhibition at 11.11 μM ([4]; % Inhibition (set 1)): 15%
- inhibition at 33.33 μM ([4]; % Inhibition (set 1)): 15%
- inhibition at 100 μM ([4]; % Inhibition (set 1)): 29%
- inhibition at 0.05 μM ([4]; % Inhibition (set 2)): 0%
- inhibition at 0.41 μM ([4]; % Inhibition (set 2)): 5%
- inhibition at 1.23 μM ([4]; % Inhibition (set 2)): 9%
- inhibition at 3.7 μM ([4]; % Inhibition (set 2)): 0%
- inhibition at 11.11 μM ([4]; % Inhibition (set 2)): 7%
- inhibition at 33.33 μM ([4]; % Inhibition (set 2)): 14%
- inhibition at 100 μM ([4]; % Inhibition (set 2)): 31%
- inhibition at 0.05 μM ([5]; % Inhibition (set 1)): 0%
- inhibition at 0.41 μM ([5]; % Inhibition (set 1)): 0%
- inhibition at 1.23 μM ([5]; % Inhibition (set 1)): 0%
- inhibition at 3.7 μM ([5]; % Inhibition (set 1)): 0%
- inhibition at 11.11 μM ([5]; % Inhibition (set 1)): 3%
- inhibition at 33.33 μM ([5]; % Inhibition (set 1)): 11%
- inhibition at 100 μM ([5]; % Inhibition (set 1)): 7%
- inhibition at 0.05 μM ([5]; % Inhibition (set 2)): 0%
- inhibition at 0.41 μM ([5]; % Inhibition (set 2)): 0%
- inhibition at 1.23 μM ([5]; % Inhibition (set 2)): 0%
- inhibition at 3.7 μM ([5]; % Inhibition (set 2)): 0%
- inhibition at 11.11 μM ([5]; % Inhibition (set 2)): 2%
- inhibition at 33.33 μM ([5]; % Inhibition (set 2)): 15%
- inhibition at 100 μM ([5]; % Inhibition (set 2)): 0%
- pIC50 [6]: < 4.00
- pIC50 [7]: < 4.00
- inhibition at 0.41 μM ([8]; % Inhibition (set 1)): 3%
- inhibition at 100 μM ([8]; % Inhibition (set 1)): 23%
- inhibition at 1.23 μM ([8]; % Inhibition (set 2)): 0%
- inhibition at 3.7 μM ([8]; % Inhibition (set 2)): 0%
- inhibition at 100 μM ([8]; % Inhibition (set 2)): 19%
- inhibition at 0.05 μM ([9]; % Inhibition (set 1)): 0%
- inhibition at 0.41 μM ([9]; % Inhibition (set 1)): 6%
- inhibition at 1.23 μM ([9]; % Inhibition (set 1)): 0%
- inhibition at 3.7 μM ([9]; % Inhibition (set 1)): 9%
- inhibition at 11.11 μM ([9]; % Inhibition (set 1)): 5%
- inhibition at 33.33 μM ([9]; % Inhibition (set 1)): 7%
- inhibition at 100 μM ([9]; % Inhibition (set 1)): 8%
- inhibition at 0.05 μM ([9]; % Inhibition (set 2)): 0%
- inhibition at 0.41 μM ([9]; % Inhibition (set 2)): 3%
- inhibition at 1.23 μM ([9]; % Inhibition (set 2)): 1%
- inhibition at 3.7 μM ([9]; % Inhibition (set 2)): 5%
- inhibition at 11.11 μM ([9]; % Inhibition (set 2)): 6%
- inhibition at 33.33 μM ([9]; % Inhibition (set 2)): 4%
- inhibition at 100 μM ([9]; % Inhibition (set 2)): 9%
SMILES: CC(C)(CCCCCCCCCCCCC(C)(C)C(=O)O)C(=O)O [M16αα, 2,2,15,15-tetramethylhexadecane-1,16-dioic acid]

- inhibition at 0.05 μM ([1]; % Inhibition (set 1)): 8%
- inhibition at 0.41 μM ([1]; % Inhibition (set 1)): 7%
- inhibition at 1.23 μM ([1]; % Inhibition (set 1)): 4%
- inhibition at 3.7 μM ([1]; % Inhibition (set 1)): 7%
- inhibition at 11.11 μM ([1]; % Inhibition (set 1)): 15%
- inhibition at 33.33 μM ([1]; % Inhibition (set 1)): 22%
- inhibition at 100 μM ([1]; % Inhibition (set 1)): 46%
- inhibition at 0.05 μM ([1]; % Inhibition (set 2)): 0%
- inhibition at 0.41 μM ([1]; % Inhibition (set 2)): 0%
- inhibition at 1.23 μM ([1]; % Inhibition (set 2)): 0%
- inhibition at 3.7 μM ([1]; % Inhibition (set 2)): 0%
- inhibition at 11.11 μM ([1]; % Inhibition (set 2)): 9%
- inhibition at 33.33 μM ([1]; % Inhibition (set 2)): 23%
- inhibition at 100 μM ([1]; % Inhibition (set 2)): 46%
- pIC50 [2]: < 4.00
- pIC50 [3]: < 4.00
- inhibition at 0.05 μM ([4]; % Inhibition (set 1)): 0%
- inhibition at 0.41 μM ([4]; % Inhibition (set 1)): 0%
- inhibition at 1.23 μM ([4]; % Inhibition (set 1)): 3%
- inhibition at 3.7 μM ([4]; % Inhibition (set 1)): 13%
- inhibition at 11.11 μM ([4]; % Inhibition (set 1)): 19%
- inhibition at 33.33 μM ([4]; % Inhibition (set 1)): 34%
- inhibition at 100 μM ([4]; % Inhibition (set 1)): 50%
- inhibition at 0.05 μM ([4]; % Inhibition (set 2)): 0%
- inhibition at 0.41 μM ([4]; % Inhibition (set 2)): 3%
- inhibition at 1.23 μM ([4]; % Inhibition (set 2)): 10%
- inhibition at 3.7 μM ([4]; % Inhibition (set 2)): 8%
- inhibition at 11.11 μM ([4]; % Inhibition (set 2)): 18%
- inhibition at 33.33 μM ([4]; % Inhibition (set 2)): 26%
- inhibition at 100 μM ([4]; % Inhibition (set 2)): 44%
- inhibition at 0.05 μM ([5]; % Inhibition (set 1)): 0%
- inhibition at 0.41 μM ([5]; % Inhibition (set 1)): 0%
- inhibition at 1.23 μM ([5]; % Inhibition (set 1)): 0%
- inhibition at 3.7 μM ([5]; % Inhibition (set 1)): 0%
- inhibition at 11.11 μM ([5]; % Inhibition (set 1)): 10%
- inhibition at 33.33 μM ([5]; % Inhibition (set 1)): 17%
- inhibition at 100 μM ([5]; % Inhibition (set 1)): 10%
- inhibition at 0.05 μM ([5]; % Inhibition (set 2)): 0%
- inhibition at 0.41 μM ([5]; % Inhibition (set 2)): 0%
- inhibition at 1.23 μM ([5]; % Inhibition (set 2)): 0%
- inhibition at 3.7 μM ([5]; % Inhibition (set 2)): 1%
- inhibition at 11.11 μM ([5]; % Inhibition (set 2)): 6%
- inhibition at 33.33 μM ([5]; % Inhibition (set 2)): 14%
- inhibition at 100 μM ([5]; % Inhibition (set 2)): 19%
- pIC50 [6]: < 4.00
- pIC50 [7]: < 4.00
- inhibition at 0.05 μM ([8]; % Inhibition (set 1)): 0%
- inhibition at 0.41 μM ([8]; % Inhibition (set 1)): 0%
- inhibition at 0.41 μM ([8]; % Inhibition (set 2)): 0%
- inhibition at 100 μM ([8]; % Inhibition (set 2)): 15%
- inhibition at 0.05 μM ([9]; % Inhibition (set 1)): 0%
- inhibition at 0.41 μM ([9]; % Inhibition (set 1)): 0%
- inhibition at 1.23 μM ([9]; % Inhibition (set 1)): 0%
- inhibition at 3.7 μM ([9]; % Inhibition (set 1)): 0%
- inhibition at 11.11 μM ([9]; % Inhibition (set 1)): 4%
- inhibition at 33.33 μM ([9]; % Inhibition (set 1)): 3%
- inhibition at 100 μM ([9]; % Inhibition (set 1)): 1%
- inhibition at 0.05 μM ([9]; % Inhibition (set 2)): 0%
- inhibition at 0.41 μM ([9]; % Inhibition (set 2)): 0%
- inhibition at 1.23 μM ([9]; % Inhibition (set 2)): 0%
- inhibition at 3.7 μM ([9]; % Inhibition (set 2)): 0%
- inhibition at 11.11 μM ([9]; % Inhibition (set 2)): 0%
- inhibition at 33.33 μM ([9]; % Inhibition (set 2)): 1%
- inhibition at 100 μM ([9]; % Inhibition (set 2)): 4%
SMILES: CC(C)(CCCCCCCCCCC(C)(C)CC(=O)O)CC(=O)O [M16ββ, 3,3,14,14-tetramethylhexadecane-1,16-dioic acid]
